# Data published in article PMC10609173, “Antiplasmodial and Antileishmanial Activities of a New Limonoid and Other Constituents from the Stem Bark of Khaya senegalensis” (Molecules, 2023).
# Like-named read-outs stand apart in the source and are kept apart here.
# Columns and labels:
# [1] = test system: promastigote form of Leishmania donovani (1S(MHOM/SD/62/1S)); experiment: Antileishmanial resazurin-based assay on promastigotes; type: cell-based; settings: for IC50: Leishmania donovani, read-out: Antileishmanial Activity IC50 ± SD; for Antileishmanial Selectivity (SI): SI = CC50 against macrophages/IC50 against promastigotes
# Experimental: A T-75 cm^2 cell culture flask was filled with complete Medium 199 [M199 supplemented with 10% heat-inactivated fetal bovine serum (HIFBS) and 100 IU/mL penicillin/streptomycin (Sigma, Darmstadt, Germany)] and used to grow the promastigote forms of Leishmania donovani. Every 72 h, flasks were subcultured and incubated at 28 °C.
# The resazurin-based assay was used to evaluate the antileishmanial activity of the extract (100 μg/mL–0.16 μg/mL), major fractions (100 μg/mL–0.16 μg/mL), and isolated compounds (50 μg/mL–0.08 μg/mL) against the promastigote form of Leishmania donovani. Briefly, 10 μL of inhibitors at various triplicate doses (as prescribed for the antiplasmodial assay) were added to 90 μL of promastigotes from a logarithmic phase culture at a density of 4.10^5 parasites/mL. The plates were incubated for 28 h at 28 °C, and 10 μL of resazurin solution (Sigma, Darmstadt, Germany) was added. Amphotericin B (Sigma, Darmstadt, Germany) (10 μg–0.016 μg/mL) and 0.1% DMSO-treated wells were used as the […], respectively. After a further 44 h of incubation, plates were read using a Magelan Infinite M200 fluorescence plate reader (Tecan, Männedorf, Switzerland) at excitation and emission wavelengths of 530 and 590 nm, respectively.
# (§1) The resulting fluorescence readings were used to calculate the growth inhibition percentages relative to the negative control for each sample and for each of the tested doses. GraphPad Prism 8.0 software was used to generate concentration-response curves from the nonlinear regression fit to determine the median inhibitory or cytotoxic concentration (IC50/CC50). The resistance index (RI) for antiplasmodial tests was calculated as the ratio between the samples’ IC50 values for the chloroquine-sensitive strain 3D7 and the multiresistant strain Dd2 [69]. Inhibitors with an RI value below 1 were considered to act preferentially on the resistant strain. Based on each inhibitor’s antiparasitic efficacy (IC50) and cell toxicity (CC50), selectivity indices (SI) were calculated [SI = CC50 (RAW)/IC50 (Parasites)]. Samples were classified as poorly toxic to RAW cells if their SI values were greater than 10 [70].
# [2] = Cytotoxicity assay (resazurin) on RAW 264.7 macrophages; type: cell-based, murine; settings: mouse
# Experimental: The murine macrophage RAW 264.7 cell line was grown in DMEM (Dulbecco’s modified Eagle’s medium) containing 1% penicillin-streptomycin, 1% nonessential amino acids (NEA), and 10% HIFBS at 37 °C, and 5% CO2 in a humidified environment. A reverse Etaluma fluorescence microscope was used to view the cells every day, and the growth media was replaced every 72 h. At 80% confluence, cells were isolated using 0.25% Trypsine-EDTA (Gibco, MT, USA).
# The murine macrophages, RAW 264.7 cells, were plated into a 96-well cell culture treated flat-bottomed plate ([…], Inc., Newton, NC 28658, USA) at a density of 10 × 10^4 cells/100 μL/well and incubated overnight to enable cell adhesion. A fresh complete medium containing serially diluted concentrations of crude extract, fractions, and compounds was used to replace the previous medium. The final assay concentration values for extracts/fractions and compounds varied from 400 μg/mL to 0.8 μg/mL and 100–0.16 μg/mL, respectively. Podophyllotoxin (Sigma-Aldrich, Munich, Germany) was used as a positive control at a maximum dose of 10 μM. After 48 h of incubation, 10 μL of resazurin solution (0.15 mg/mL dissolved in PBS) was added to each well, and the plates were incubated for an additional 4 h. Fluorescence data were finally recorded with a Magellan Infinite M200 plate reader (Tecan, Germany) at excitation and emission wavelengths of 530 nm and 590 nm, respectively.
# as §1
# [3] = test system: chloroquine-sensitive 3D7 strain of Plasmodium falciparum (Pf3D7); experiment: Antiplasmodial SYBR Green I fluorescence assay, Pf3D7 strain; type: cell-based; settings: read-out: Antiplasmodial Activity Pf3D7 IC50 ± SD
# Source text: (§2) The parasite strains used in this study are continuously cultured at the Antimicrobial and Biocontrol Agents Unit of the University of Yaoundé I, and were graciously provided by BEI Resources (https://www.beiresources.org (accessed on 16 February 2019)). They comprise the Leishmania donovani strain (1S(MHOM/SD/62/1S), the multiresistant (PfDd2), and the chloroquine-sensitive (Pf3D7-(MRA-102)) strains of Plasmodium falciparum. RPMI 1640 media supplemented with 0.2% sodium bicarbonate (Sigma Aldrich, Billings, MT, USA), 0.5% Albumax II (Gibco), 1% hypoxanthine 100X (Gibco, Billings, MT, USA), 25 mM HEPES, and 0.04% gentamicin (Sigma Aldrich) was used to sustain P. falciparum strains in sterile petri dishes. Fresh red blood cells from healthy O^+ human volunteers were also added to the medium. These cells were suspended at 4% hematocrit (v/v) and incubated at 37 °C in a humidified environment with 5% CO2. To regularly maintain the culture, fresh medium was added to the culture every day. Thin blood smears stained with 10% Giemsa were used to microscopically monitor cell-cycle transition and parasitemia under immersion oil.
# (§3) The antiplasmodial efficacy of the samples was evaluated using the SYBR Green I-based fluorescence assay, as previously reported by Smilkstein et al., on a sorbitol-synchronized ring stage culture of Plasmodium falciparum (PfDd2 and Pf3D7 strains). The test relies on the development of intense fluorescence following SYBR green binding to the exposed DNA found in wells containing healthy cells. Ninety microliters of parasites prepared with 1% hematocrit and 2% parasitemia and 10 μL of test sample extracts, fractions, isolated chemicals, chloroquine, and artemisinin were each added in triplicate into wells of a flat-bottomed microplate. The final test concentration values for the samples varied from 50 μg/mL-0.08 μg/mL and 100 μg/mL-0.16 μg/mL for extract/fractions. Following a 72 h incubation at 37 °C, 100 μL of SYBR Green I solution prepared with lysis buffer (0.2 μL of 10,000 SYBR Green I per mL of lysis buffer) made of EDTA (5 mM), Tris (20 mM; pH 7.5), Triton X-100 (0.08%; v/v), and saponin (0.008%; m/v) was added to each well. Fluorescence measurements were taken using an Infinite M200 microplate reader (Tecan, MT, USA) at emission and excitation wavelengths of 538 and 485 nm, respectively.
# as §1
# [4] = test system: multidrug-resistant Dd2 strain of Plasmodium falciparum (PfDd2); experiment: Antiplasmodial SYBR Green I fluorescence assay, PfDd2 strain; type: cell-based; settings: Plasmodium falciparum
# Source text: as §2, §3, §1
# [5] = test system: amastigote forms of Leishmania donovani; design: method as in doi:10.1076/phbi.39.4.284.5921; settings: isolated from Khaya senegalensis; cited from earlier work
# Leishmania amazonensis = test system: Leishmania amazonensis; design: method as in PMID 21343887; settings: cited from earlier work
# [6] = test system: clinical isolate of P. falciparum; design: method as in doi:10.1080/13880200601009123; settings: cited from earlier work
# amastigote = test system: amastigote; design: method as in PMID 15070160; settings: from Pourouma guianensis; cited from earlier work
# promastigote = test system: promastigote; design: method as in PMID 15070160; settings: from Pourouma guianensis; cited from earlier work
# [7] = test system: chloroquine-sensitive/sulfadoxine-resistant Pf3D7 strain; design: method as in PMID 36837917; settings: in vitro; isolated from Trichilia monadelpha; cited from earlier work
# [8] = L. donovani promastigotes, 28 °C
# [9] = 3D7, Pf3D7 strain, ring stage, 72 h
# [10] = DD2, PfDd2 strain, ring stage, 72 h, read-out: Antiplasmodial Activity PfDd2 IC50 ± SD
# [11] = RAW 264.7 macrophages, 48 h incubation, resazurin, read-out: Cytotoxicity on RAW 264.7 Cells CC50 ± SD
# [12] = DD2, 72 h, read-out: Antiplasmodial Activity PfDd2 IC50 ± SD, PfDd2 strain, ring stage, 72 h
# [13] = RAW 264.7 macrophage cells, RAW 264.7 macrophages, 48 h incubation, resazurin, read-out: Cytotoxicity on RAW 264.7 Cells CC50 ± SD
SMILES,"IC50 [1, 8] [µg/mL]",Antileishmanial Selectivity (SI) [1],CC50 at 48 h [2] [µg/mL],"IC50 [3, 9] [µg/mL]","IC50 [4, 10] [µg/mL]","IC50 [4, 12] [µg/mL]",other results
"COc1ccc(-c2cc(=O)c3c(O)c(OC)c(OC)cc3o2)cc1OC [Belamcanidin (8), Belamcanidin]",22.21 ± 0.08,>18.013,> 400,104.9 ± 0.39,50.97 ± 0.37,,
"COc1cc([C@@H]2c3cc4c(cc3[C@H](O)[C@H]3COC(=O)[C@H]23)OCO4)cc(OC)c1OC [Podophyllotoxin, reference compound]",,,,,,,"CC50 at 48 h [2, 11]: 0.71 ± 0.2 µg/mL"
"Oc1cc(O)c2c(c1)O[C@H](c1ccc(O)c(O)c1)[C@@H](O)[C@@H]2c1c(O)cc(O)c2c1O[C@H](c1ccc(O)c(O)c1)[C@@H](O)C2 [catechin-(4a,8)-catechin]",,,,,,,IC50 against amastigote forms of Leishmania donovani [5]: 3.98 µg/mL
"C=C(C)[C@@H]1CC[C@]2(C(=O)O)CC[C@]3(C)[C@H](CC[C@@H]4[C@@]5(C)C[C@@H](O)[C@H](O)C(C)(C)[C@@H]5CC[C@]43C)[C@@H]12 [Alphitolic acid (3), alphitolic acid]",17.1 ± 0.9,2.09,35.8,146.77 ± 0.13,,> 200,
"CC1(C)CC[C@]2(C(=O)O)CC[C@]3(C)C(=CC[C@@H]4[C@@]5(C)CC[C@H](O)C(C)(C)[C@@H]5CC[C@]43C)[C@@H]2C1 [Oleanolic acid (7), oleanolic acid]",30.6 ± 0.67,˃13.06,,93.58 ± 0.92,,43.6 ± 0.73,"IC50, growth of Leishmania amazonensis (Leishmania amazonensis): 439.5 µg/mL; IC50, growth of clinical isolate of P. falciparum [6]: 15.2 µg/mL; CC50 at 48 h [2, 13]: > 400 µg/mL; IC50, antiamastigote inhibitory activity (amastigote): 27 µg/mL; IC50, antipromastigote effect (promastigote): 10 µg/mL"
"C[C@@H]1[C@H](O)[C@@H](C)/C=C/C=C/C=C/C=C/C=C/C=C/C=C/[C@H](O[C@@H]2O[C@H](C)[C@@H](O)[C@H](N)[C@@H]2O)C[C@@H]2O[C@](O)(C[C@@H](O)C[C@@H](O)[C@H](O)CC[C@@H](O)C[C@@H](O)CC(=O)O[C@H]1C)C[C@H](O)[C@H]2C(=O)O [Amphotericin B, amphotericin B, reference compound]",3.14 ± 0.46,,,,,,
"CCN(CC)CCCC(C)Nc1ccnc2cc(Cl)ccc12 (stereo not drawn) [Chloroquine, Chloroquine phosphate, reference compound]",,,,,,,"IC50 ([3]; 3D7, 72 h): 0.022 ± 0.25 µg/mL; IC50 ([4]; DD2, 72 h, read-out: Antiplasmodial Activity PfDd2 IC50 ± SD): 0.085 ± 0.01 µg/mL"
"CC1(C)CC[C@]2(C(=O)O)CC[C@]3(C)C(=CCC4[C@@]5(C)C[C@@H](O)[C@H](O)C(CO)(CO)C5CC[C@]43C)C2[C@@H]1O (stereo partly drawn) [Bellericagenin B (2), bellericagenin B]",6.5 ± 0.01,>61.54,> 400,107.7 ± 0.37,34.02 ± 0.09,,
"C=C1[C@@H]2CC[C@@]3(C)[C@H](c4ccoc4)OC(=O)C[C@]13O[C@H]1CC(=O)C(C)(C)[C@H](CC(=O)OC)[C@]12C [Methylangolensate (4), methyl angolensate]",,2.81,,,,20.5 ± 0.45,"IC50 [1]: 25.8 ± 0.27 µg/mL; CC50 at 48 h [2, 11]: 72.7 µg/mL; IC50 ([3]; 3D7, 72 h): 165.19 ± 0.06 µg/mL"
"C=C1C2C(OC3CC(=O)OC4(C)COC(=O)CC4C32C)C(OC(=O)C(O)C(C)CC)C2(C)C(c3ccoc3)CC(=O)C12O (stereo not drawn) [Rohituka-3 (5), rohituka-3]",23.35 ± 0.21,>17.13,,68 ± 0.02,,15.9 ± 0.33,"CC50 at 48 h [2, 13]: > 400 µg/mL"
"COC(=O)[C@H](O)[C@@H]1[C@@]2(C)[C@H]3CC[C@@]4(C)[C@H](c5ccoc5)OC(=O)C[C@@]45O[C@H]4C(=O)[C@@]1(C)C[C@]2(OC(C)=O)[C@@H]4[C@@]35O [Khayanolide E (6), khayanolide E]",81.73 ± 0.12,0.99,81.6,56.98 ± 0.08,14.03 ± 0.06,,IC50 against Pf3D7 [7]: 1.68 µg/mL
"Oc1cc(O)c2c(c1)O[C@H](c1ccc(O)c(O)c1)[C@@H](O)[C@@H]2c1c(O)cc2c(c1O)C[C@H](O)[C@@H](c1ccc(O)c(O)c1)O2 [catechin-(4a,6)-catechin]",,,,,,,IC50 against amastigote forms of Leishmania donovani [5]: 3.85 µg/mL
"C[C@@H]1CC[C@H]2[C@@H](C)C(=O)O[C@@H]3O[C@@]4(C)CC[C@@H]1[C@]32OO4 [Artemesin, artemisinin, reference compound]",,,,0.02,0.024 ± 0.24,,
